According to ChEMBL document CHEMBL3044904, “Mild and highly efficient copper (II) sulfate catalyzed one pot synthesis of 2-aryl benzimidazole using atmospheric air as an oxidant and its antibacterial study” (2013):
≈ marks a conversion by molar mass, not a printed value.

Experiments:
Assay type in all cases: functional
[1] = system: Salmonella typhi; test: Antibacterial activity against Salmonella enterica subsp. enterica serovar Typhi ATCC 15499 assessed as growth inhibition after 24 hr by two-fold serial dilution method; settings: ATCC 15499, 24 h
[2] = system: Bacillus cereus; test: Antibacterial activity against Bacillus cereus MTCC 7350 assessed as growth inhibition after 24 hr by two-fold serial dilution method; settings: MTCC 7350, 24 h
[3] = system: Escherichia coli; test: Antibacterial activity against Escherichia coli ATCC 35218 assessed as growth inhibition after 24 hr by two-fold serial dilution method; settings: ATCC 35218, 24 h
[4] = system: Pseudomonas aeruginosa; test: Antibacterial activity against Pseudomonas aeruginosa ATCC 23564 assessed as growth inhibition after 24 hr by two-fold serial dilution method; settings: ATCC 23564, 24 h
[5] = system: Staphylococcus aureus; test: Antibacterial activity against Staphylococcus aureus ATCC 11632 assessed as growth inhibition after 24 hr by two-fold serial dilution method; settings: ATCC 11632, 24 h
[6] = system: Enterococcus faecalis; test: Antibacterial activity against Enterococcus feacalis clinical isolate assessed as growth inhibition after 24 hr by two-fold serial dilution method

**Q.** For `c1ccc(-c2nc3ccccc3[nH]2)cc1`, which MIC [1] is on record?
**A.** The MIC was 6.25 µg/mL (≈ 32.2 µM).

**Q.** What about the MIC [2] of the same molecule?
**A.** The MIC was 50 µg/mL (≈ 257 µM).

**Q.** And the MIC [3]?
**A.** The MIC was 50 µg/mL (≈ 257 µM).

**Q.** What about the MIC [4] of the same molecule?
**A.** The MIC was 12.5 µg/mL (≈ 64.4 µM).

**Q.** What about the MIC [5] of the same molecule?
**A.** The MIC was 12.5 µg/mL (≈ 64.4 µM).

**Q.** And the MIC [6]?
**A.** Its MIC is 12.5 µg/mL (≈ 64.4 µM).

**Q.** Which MIC [1] does the source give for `Oc1ccccc1-c1nc2ccccc2[nH]1` here?
**A.** The MIC was 400 µg/mL (≈ 1900 µM).

**Q.** What about the MIC [2] of the same molecule?
**A.** Its MIC is 6.25 µg/mL (≈ 29.7 µM).

**Q.** What about the MIC [3] of the same molecule?
**A.** The MIC was 400 µg/mL (≈ 1900 µM).

**Q.** And the MIC [4]?
**A.** Its MIC is 25 µg/mL (≈ 119 µM).

**Q.** And the MIC [5]?
**A.** Its MIC is 25 µg/mL (≈ 119 µM).

**Q.** What about the MIC [6] of the same molecule?
**A.** The MIC was 50 µg/mL (≈ 238 µM).

**Q.** `Cc1ccc(-c2nc3ccccc3[nH]2)cc1` was tested. Which MIC [1] did it give?
**A.** The MIC was 50 µg/mL (≈ 240 µM).

**Q.** What about the MIC [2] of the same molecule?
**A.** The MIC was 200 µg/mL (≈ 960 µM).

**Q.** What about the MIC [3] of the same molecule?
**A.** The MIC was 50 µg/mL (≈ 240 µM).

**Q.** And the MIC [4]?
**A.** Its MIC is 12.5 µg/mL (≈ 60 µM).

**Q.** And the MIC [5]?
**A.** Its MIC is 25 µg/mL (≈ 120 µM).

**Q.** And the MIC [6]?
**A.** The MIC was 50 µg/mL (≈ 240 µM).

**Q.** What does the source list for `C(=C\c1ccc(-c2nc3ccccc3[nH]2)cc1)/c1ccccc1`?
**A.** MIC [1]: 25 µg/mL (≈ 84.4 µM); MIC [2]: 6.25 µg/mL (≈ 21.1 µM); MIC [3]: 50 µg/mL (≈ 169 µM); MIC [4]: 12.5 µg/mL (≈ 42.2 µM); MIC [5]: 12.5 µg/mL (≈ 42.2 µM); MIC [6]: 25 µg/mL (≈ 84.4 µM)

**Q.** `Oc1ccc(-c2nc3ccccc3[nH]2)cc1` was tested. Which MIC [1] did it give?
**A.** Its MIC is 400 µg/mL (≈ 1900 µM).

**Q.** And the MIC [2]?
**A.** The MIC was 50 µg/mL (≈ 238 µM).

**Q.** What about the MIC [3] of the same molecule?
**A.** Its MIC is 400 µg/mL (≈ 1900 µM).

**Q.** What about the MIC [4] of the same molecule?
**A.** Its MIC is 25 µg/mL (≈ 119 µM).

**Q.** And the MIC [5]?
**A.** The MIC was 25 µg/mL (≈ 119 µM).

**Q.** And the MIC [6]?
**A.** Its MIC is 100 µg/mL (≈ 476 µM).

**Q.** How did the MIC [1] turn out when `COc1ccc(-c2nc3ccccc3[nH]2)cc1` was run?
**A.** Its MIC is 25 µg/mL (≈ 111 µM).

**Q.** And the MIC [2]?
**A.** Its MIC is 50 µg/mL (≈ 223 µM).

**Q.** And the MIC [3]?
**A.** Its MIC is 50 µg/mL (≈ 223 µM).

**Q.** And the MIC [4]?
**A.** Its MIC is 25 µg/mL (≈ 111 µM).

**Q.** And the MIC [5]?
**A.** Its MIC is 12.5 µg/mL (≈ 55.7 µM).

**Q.** And the MIC [6]?
**A.** Its MIC is 25 µg/mL (≈ 111 µM).

**Q.** How did the MIC [1] turn out when `Clc1ccc(-c2nc3ccccc3[nH]2)cc1` was run?
**A.** The MIC was 25 µg/mL (≈ 109 µM).

**Q.** And the MIC [2]?
**A.** The MIC was 6.25 µg/mL (≈ 27.3 µM).

**Q.** What about the MIC [3] of the same molecule?
**A.** The MIC was 25 µg/mL (≈ 109 µM).

**Q.** And the MIC [4]?
**A.** Its MIC is 12.5 µg/mL (≈ 54.7 µM).

**Q.** And the MIC [5]?
**A.** Its MIC is 12.5 µg/mL (≈ 54.7 µM).

**Q.** What about the MIC [6] of the same molecule?
**A.** Its MIC is 12.5 µg/mL (≈ 54.7 µM).

**Q.** `O=[N+]([O-])c1ccc(-c2nc3ccccc3[nH]2)cc1` was tested. Which MIC [1] did it give?
**A.** The MIC was 25 µg/mL (≈ 105 µM).

**Q.** And the MIC [2]?
**A.** Its MIC is 25 µg/mL (≈ 105 µM).

**Q.** And the MIC [3]?
**A.** Its MIC is 50 µg/mL (≈ 209 µM).

**Q.** What about the MIC [4] of the same molecule?
**A.** Its MIC is 12.5 µg/mL (≈ 52.3 µM).

**Q.** And the MIC [5]?
**A.** The MIC was 50 µg/mL (≈ 209 µM).

**Q.** And the MIC [6]?
**A.** Its MIC is 25 µg/mL (≈ 105 µM).

**Q.** With `CC1(C)S[C@@H]2[C@H](NC(=O)[C@H](N)c3ccccc3)C(=O)N2[C@H]1C(=O)O` [AMPICILLIN] as the molecule, how does the MIC [1] read?
**A.** The MIC was 6.25 µg/mL (≈ 17.9 µM).

**Q.** And the MIC [2]?
**A.** The MIC was 50 µg/mL (≈ 143 µM).

**Q.** And the MIC [3]?
**A.** The MIC was 400 µg/mL (≈ 1140 µM).

**Q.** And the MIC [4]?
**A.** The MIC was 50 µg/mL (≈ 143 µM).

**Q.** And the MIC [5]?
**A.** Its MIC is 50 µg/mL (≈ 143 µM).

**Q.** What about the MIC [6] of the same molecule?
**A.** The MIC was 400 µg/mL (≈ 1140 µM).

**Q.** How did the MIC [1] turn out when `O=C(O)c1cn(C2CC2)c2cc(N3CCNCC3)c(F)cc2c1=O` [CIPROFLOXACIN] was run?
**A.** The MIC was 3.12 µg/mL (≈ 9.42 µM).

**Q.** What about the MIC [4] of the same molecule?
**A.** The MIC was 1.25 µg/mL (≈ 3.77 µM).
